Data from patent US20120282167A1, “METHOD FOR PREDICTING THE SENSITIVITY OF A TUMOR TO AN EPIGENETIC TREATMENT” (INSTITUT CURIE, priority 2009, published 2012).

Assays:
Assay type in all cases: cell-based, human
[1] = tested on: H3K9me3, H3K27me3 and H3K9ac at gene promoters in CL1207 cells; assay: Chromatin immunoprecipitation (ChIP) of histone modifications in CL1207 before and after TSA; conditions: 300 nM TSA for 16 h
Description: FIG. 5: Analyses of epigenetic modifications in regions 2-7 and 19-3A (a) Schematic map of region 2-7 (not to scale) with CpG islands, according to the UCSC browser. The number of CpG in each island is indicated. (b) DNA methylation analyses for region 2-7: bisulfite sequencing analyses for CpG 141 and CpG 39 covering a promoter region. In each case, T1207 DNA, CL1207 DNA, NHU DNA and SssI-methylated DNA (“Met. DNA”) were studied. Each row represents an individual clone, and each box (methylated in black, unmethylated in white) represents an individual CpG site. The curved arrows indicate the transcription start sites. (c) ChIP assays were performed for promoters in region 2-7 with antibodies against trimethyl H3K9 (left panel), trimethyl H3K27 (middle panel) and acetyl H3K9 (right panel). […] (d) Schematic map of region 19-3A with CpG islands. (e) ChIP analyses for region 19-3A as in (c).
FIG. 6: Analyses of epigenetic modifications in region 3-2. (a) Schematic map of region 3-2 (not to scale) with CpG islands, according to the UCSC browser. The number of CpGs in each island is indicated. (b) DNA methylation analyses for region 3-2: bisulfite sequencing analyses for the three CpGs covering a promoter region: CpG 74, 59 and 68. In each case, DNA from T1207, CL1207 and NHU and SssI-methylated DNA (“Met. DNA”) were studied. Each row represents an individual clone and each box represents an individual CpG site. A black box indicates methylation and a white box no methylation. The curved arrows indicate the transcription start sites. (c) Methylation analysis of DLEC1 promoter by bisulfite sequencing in five tumor samples showing downregulation of region 3-2: T195, T259, T447, T910 and T1448. […]
Chromatin immunoprecipitation (ChIP) assays were carried out in duplicate in three 150 cm^2 dishes for untreated CL1207, CL1207 treated with 300 nM TSA for 16 h, TCCSUP, RT112 and NHU cells. […] The amount of immunoprecipitated target was determined by real-time PCR, in duplicate, using the ABI PRISM 7900HT Sequence Detection System. […]

[2] = tested on: genes within the seven epigenetic regions in TCCSUP, HT1376 and JMSU1 cells; assay: Re-expression of genes of the seven RES regions after TSA, RT-qPCR (TLDA), cell lines TCCSUP, HT1376 and JMSU1
Description: (§1) FIG. 10: Characterization of the regional epigenetic phenotype in bladder cancer cell lines. (a) Comparison of mRNA expression for genes in region 2-7 before and after treatment with TSA in bladder cancer cell lines and NHU cells; results obtained for the CL1207 cells (from FIG. 3) are also shown. Transcript values were measured by RT-qPCR using TLDA (see Materials and Methods in experimental section). The ratio between treated and non-treated cells is shown. Error bars represent the variation between the means of two independent experiments of TSA treatment. (b) Same comparison for region 3-2. (c) Same comparison for region 19-3A. (d) Summary of the effects of TSA treatment on all bladder cancer and NHU cell lines studied. Only groups of genes in which at least two genes were re-expressed after treatment are considered (see FIG. 11). (e) ChIP analysis in TCCSUP and RT112 cells for regions 2-7, 3-2 and 19-3A, with an antibody against trimethyl residues on lysine 9 of histone 3.
(§2) FIG. 11: Comparison of the mRNA levels of the genes in regions 3-5, 7-2, 14-1 and 19-3B in bladder cancer and normal cells before and after treatment with TSA. mRNA levels were assessed by RT-qPCR using TLDA (see Materials and Methods in experimental section). The ratio between treated versus non-treated cells is shown. Error bars represent the variation between two independent experiments. […]

[3] = tested on: cell lines without the RES phenotype (MGHU3, RT112 and T24) and NHU cells; assay: Trichostatin A sensitivity assay (living cells counted after 72 hours, treated versus non-treated); conditions: doses 100 nM to 500 nM, read-out: IC50 (half maximal inhibitory concentration), growth inhibition
Description: (§3) FIG. 13: Cell viability after treatment with various doses of trichostatin A in bladder cancer cell lines with or without the RES phenotype and NHU cells. The percentage of surviving treated versus non-treated cells as a function of TSA concentration for various bladder cancer (MGHU3, RT112, T24, TCCSUP, HT1376, JMSU1, CL1207) and normal (NHU) cell lines is indicated. The number of cells surviving post treatment with TSA for 72 hours was counted and compared to control (no treatment) cultures. Cell lines with the RES phenotype are indicated with full symbols (TCCSUP, HT1376, JMSU1, CL1207) whereas cell lines without the RES phenotype (NHU, MGHU3, RT112, T24) are indicated with empty symbols. The error bars indicate the mean variation between two independent experiments.
(§4) All bladder cancer and NHU cell lines were seeded in 12-well plates at a density of 5×10^4 cells/well. Cultures were treated the next day, in duplicate, with various doses of trichostatin A, from 100 nM to 500 nM, with two wells left untreated. After 72 hours, the living cells in each treated well were harvested and counted and compared to the numbers of cells in the non-treated wells. The resulting ratio was used to assess sensitivity to trichostatin A.
(§5) The RES phenotype was characterized by strong histone K9 and K27 methylation and K9 hypoacetylation, but extremely rare DNA methylation. […]

[4] = tested on: cell lines with the RES phenotype (TCCSUP, HT1376, JMSU1 and CL1207); assay: as above; conditions: on average for TCCSUP, doses 100 nM to 500 nM, read-out: IC50 (half maximal inhibitory concentration), growth inhibition
Description: as §3, §4, §5

[5] = tested on: genes within the seven epigenetic regions in NHU, MGHU3, RT112 and T24 cells; assay: Re-expression of genes of the seven RES regions after TSA, RT-qPCR (TLDA), NHU, MGHU3, RT112 and T24
Description: as §1, §2

[6] = tested on: genes located in the regions of downregulation in cell line CL1207; assay: Re-expression of genes in the regions of downregulation, RT-qPCR, CL1207 cell line; conditions: for re-expression of genes in downregulated regions 2-7, 3-2, 3-5, 7-2, 14-1, 19-3A and 19-3B: 300 nM TSA 16 hours, 5 μM 5-aza-deoxycytidine 72 hours, or 5 μM 5-aza-deoxycytidine 48 hours followed by 300 nM TSA 10 hours; for re-expression of genes in regions 6-7 and 17-7: same treatments, effect if fold-change >1.5
Description: FIG. 3: […] The treatments were scored as having an effect (resulting in re-expression) if the fold-change between treated and non-treated was greater than 1.5. […] With both methods, all samples were run in duplicate. For all experiments involving […] and CL1207 both methods were used.

[7] = most of the genes in all three regions

SMILES | H3K9 and H3K27 trimethylation at promoters of BSN, HOXA1, DHRS2 and JAK3 (regions 3-5, 7-2, 14-1, 19-3B) [1] | levels of active mark (H3K9ac) at promoters, regions 2-7, 3-2 and 19-3A [1, 7] | levels of inactive marks (H3K9me3, H3K27me3) at promoters, regions 2-7, 3-2 and 19-3A [1, 7] | re-expression of the regions in TCCSUP cell line ([2]; TCCSUP, TSA treatment) | re-expression of genes within the seven epigenetic regions ([2]; second group: TCCSUP, HT1376 and JMSU1, 300 nM TSA 16 hours) | IC50 [3] [nM] | IC50 [4] [nM] | re-expression of the regions in RT112 cells ([5]; RT112, TSA treatment) | re-expression of genes within the seven epigenetic regions ([5]; first group: NHU, MGHU3, RT112 and T24, 300 nM TSA 16 hours) | re-expression of genes in downregulated regions 2-7, 3-2, 3-5, 7-2, 14-1, 19-3A and 19-3B ([6]; effect if ratio >1.5) | re-expression of genes in regions 6-7 and 17-7 [6] | genes re-expressed after 5-aza-deoxycytidine treatment alone ([6]; BSN (3-5), SKAP2, HOXA4, HOXA5 (7-2), EFS, AP1G2 (14-1), 5 μM, 72 hours) | gene re-expression in repressed regions on chromosome 3 (VILL to ACAA1) and 2 (HOXD8 to HOXD1) ([6]; compared with TSA, effect if ratio >1.5)
CC(/C=C/C(=O)NO)=C\[C@@H](C)C(=O)c1ccc(N(C)C)cc1 [TSA, trichostatin A] | these marks were decreased | increased the levels of the active mark | decreased the levels of the inactive marks | all regions were re-expressed | gene re-expression was observed for most of the silenced regions after treatment | 500 | 100 | no region was re-expressed, except two genes in region 7-2 | most of the genes were not re-expressed, except for a few isolated genes in some cell lines | reexpression of most of the genes in seven regions | either to no re-expression or re-expression of only one isolated gene |  | 
Nc1ncn([C@H]2C[C@H](O)[C@@H](CO)O2)c(=O)n1 [5-aza-deoxycytidine] |  |  |  |  |  |  |  |  |  | reexpression of most of the genes in seven regions | either to no re-expression or re-expression of only one isolated gene | re-expressed | 
Nc1ccccc1NC(=O)c1ccc(CNC(=O)OCc2cccnc2)cc1 [MS275] |  |  |  |  |  |  |  |  |  |  |  |  | enabled gene re-expression in the studied regions as well as did TSA
